From patent US9044038B2, “Method of improving sweetness qualities of stevia extract” (SAN-EI GEN F.F.I., INC., priority 2007, dated 2015)
Peptide text beside a SMILES is read from it.

What was measured:
[1] = Concentration of sweetener with the same degree of sweetness as a 6% aqueous sucrose solution (Example 14, Table 20); type: in vivo
Procedure: Aqueous solutions containing various sweeteners (stevia extract, siraitia grosvenori extract, licorice extract, thaumatin, aspartame, and neotame) in the concentrations shown in Table 20 were prepared.

panelists [2] = test: Improvement in sweetness quality of sweeteners by additives, panel score (Example 14); type: in vivo; conditions: for improvement in sweetness quality, average score of twelve panelists: vs sweetener alone, 2 improvement, 1 slight improvement, 0 no improvement; for improvement in the sweetness quality of stevia extract: additive added to 0.03% stevia extract aqueous solution
Procedure: Aqueous solutions containing various sweeteners (stevia extract, siraitia grosvenori extract, licorice extract, thaumatin, aspartame, and neotame) in the concentrations shown in Table 20 were prepared. […] The evaluation was conducted by scoring the improvement in sweetness quality based on the criteria described below in comparison with an aqueous solution containing only each of the sweeteners (Control).

panelists [3] = test: as above; type: in vivo; conditions: additive added to 0.03% stevia extract aqueous solution
[4] = Concentration having the same degree of sweetness as a 5% aqueous sucrose solution (Example 1, Table 1); type: in vivo
Source text: The degree of sweetness of rebaudioside A and that of mogroside V depends on the pH. […] Citric acid and trisodium citrate were used to prepare pH3 and pH4.5 solutions, and sodium bicarbonate was used to prepare pH7 solutions.

[5] = general statement in description; cited from earlier work
[6] = additive Gentiooligosaccharide (Gentose#45) 0.4%
[7] = additive Highly branched cyclic dextrin (Cluster Dextrin) 0.07%
[8] = additive Magnesium chloride 0.05%
[9] = additive Magnesium sulfate 0.05%

| Molecule | Concentration (%) exhibiting the same degree of sweetness as a 6% aqueous sucrose solution [1] | improvement in sweetness quality, average score of twelve panelists (panelists [2]; [6]) | improvement in sweetness quality, average score of twelve panelists (panelists [2]; [7]) | improvement in sweetness quality, average score of twelve panelists (panelists [2]; [8]) | improvement in sweetness quality, average score of twelve panelists (panelists [2]; [9]) | improvement in sweetness quality, average score of twelve panelists (panelists [2]; additive Naringin 0.0025%) | remaining aftertaste of sweetness in stevia extract (panelists [3]) | richness (body) of stevia extract (panelists [3]) | further results |
| --- | --- | --- | --- | --- | --- | --- | --- | --- | --- |
| thaumatin | 0.0024% | 0.8 points | 0.5 points | 1.0 points | 1.3 points | 0.7 points |  |  |  |
| COC(=O)[C@H](Cc1ccccc1)NC(=O)[C@@H](N)CC(=O)O [Aspartame, aspartame] (H-Asp-Phe-OMe) | 0.038% | 0.3 points | 0.3 points | 0.8 points | 0.7 points | 0.3 points |  |  |  |
| O=S(=O)([O-])[O-].[Mg+2] [Magnesium sulfate, magnesium sulfate] |  |  |  |  |  |  | reduced | increased | improvement in the sweetness quality of stevia extract (panelists [2]): remarkably excellent improvements |
| COC(=O)[C@H](Cc1ccccc1)NC(=O)[C@H](CC(=O)O)NCCC(C)(C)C [Neotame, neotame] | 0.0008% | 0.8 points | 0.8 points | 0.8 points | 0.8 points | 1.0 points |  |  |  |
| C[C@@H]1O[C@@H](O[C@H]2[C@H](Oc3cc(O)c4c(c3)O[C@H](c3ccc(O)cc3)CC4=O)O[C@H](CO)[C@@H](O)[C@@H]2O)[C@H](O)[C@H](O)[C@H]1O [Naringin, naringin] |  |  |  |  |  |  | reduced | increased |  |
| C[C@H](CC[C@@H](O[C@@H]1O[C@H](CO[C@@H]2O[C@H](CO)[C@@H](O)[C@H](O)[C@H]2O)[C@@H](O)[C@H](O)[C@H]1O[C@@H]1O[C@H](CO)[C@@H](O)[C@H](O)[C@H]1O)C(C)(C)O)[C@H]1CC[C@@]2(C)[C@@H]3CC=C4[C@@H](CC[C@H](O[C@@H]5O[C@H](CO[C@@H]6O[C@H](CO)[C@@H](O)[C@H](O)[C@H]6O)[C@@H](O)[C@H](O)[C@H]5O)C4(C)C)[C@]3(C)[C@H](O)C[C@]12C [Mogroside V, mogroside V] |  |  |  |  |  |  |  |  | concentration having the same degree of sweetness as a 5% aqueous sugar solution ([4]; pH 3, substance singly): 0.03%; concentration having the same degree of sweetness as a 5% aqueous sugar solution ([4]; pH 4.5, substance singly): 0.03%; concentration having the same degree of sweetness as a 5% aqueous sugar solution ([4]; pH 7, substance singly): 0.0255%; degree of sweetness (sweetness intensity) [5]: about 300 times that of sucrose |
| C=C1C[C@@]23CC[C@H]4[C@@](C)(CCC[C@@]4(C)C(=O)O[C@@H]4O[C@H](CO)[C@@H](O)[C@H](O)[C@H]4O)[C@@H]2CC[C@]1(O[C@@H]1O[C@H](CO)[C@@H](O)[C@H](O[C@@H]2O[C@H](CO)[C@@H](O)[C@H](O)[C@H]2O)[C@H]1O[C@@H]1O[C@H](CO)[C@@H](O)[C@H](O)[C@H]1O)C3 [Rebaudioside A, rebaudioside A] |  |  |  |  |  |  |  |  | concentration having the same degree of sweetness as a 5% aqueous sugar solution ([4]; pH 3, substance singly): 0.0228%; concentration having the same degree of sweetness as a 5% aqueous sugar solution ([4]; pH 4.5, substance singly): 0.0219%; concentration having the same degree of sweetness as a 5% aqueous sugar solution ([4]; pH 7, substance singly): 0.02% |
| [Cl-].[Cl-].[Mg+2] [Magnesium chloride, magnesium chloride] |  |  |  |  |  |  | reduced | increased | improvement in the sweetness quality of stevia extract (panelists [2]): remarkably excellent improvements |
